Starred links: 1 amine or outer side, 2 acyl side, 3 side chain; linkers in the order of their positions; H or OH if unused. Non-standard residues stand in square brackets, D forms with d. No end group written: not given here. γGlu = O=C(O)[C@H](CCC(=O)[*:2])N[*:1]; Orn = NCCC[C@H](N)C(=O)O
Key:
[1] = target: T1, human calcium receptor (Homo sapiens, UniProt P41180); assay: Calcium receptor-activating effect: Ca ion concentration-dependent Cl ionic current in Xenopus laevis oocyte expression system; format: cell-based; details: for Activity (lowest concentration at which current was detected): peptide added at 1,000 to 0.1 μM to potential-clamped oocytes, Table 1
T1 construct: expressed in transfected cells; host or cells: Xenopus laevis oocytes injected with cRNA; the gene was PCR-cloned from human kidney cDNA (Clontech) into pBR322
T1 sequence (P41180 20-1078): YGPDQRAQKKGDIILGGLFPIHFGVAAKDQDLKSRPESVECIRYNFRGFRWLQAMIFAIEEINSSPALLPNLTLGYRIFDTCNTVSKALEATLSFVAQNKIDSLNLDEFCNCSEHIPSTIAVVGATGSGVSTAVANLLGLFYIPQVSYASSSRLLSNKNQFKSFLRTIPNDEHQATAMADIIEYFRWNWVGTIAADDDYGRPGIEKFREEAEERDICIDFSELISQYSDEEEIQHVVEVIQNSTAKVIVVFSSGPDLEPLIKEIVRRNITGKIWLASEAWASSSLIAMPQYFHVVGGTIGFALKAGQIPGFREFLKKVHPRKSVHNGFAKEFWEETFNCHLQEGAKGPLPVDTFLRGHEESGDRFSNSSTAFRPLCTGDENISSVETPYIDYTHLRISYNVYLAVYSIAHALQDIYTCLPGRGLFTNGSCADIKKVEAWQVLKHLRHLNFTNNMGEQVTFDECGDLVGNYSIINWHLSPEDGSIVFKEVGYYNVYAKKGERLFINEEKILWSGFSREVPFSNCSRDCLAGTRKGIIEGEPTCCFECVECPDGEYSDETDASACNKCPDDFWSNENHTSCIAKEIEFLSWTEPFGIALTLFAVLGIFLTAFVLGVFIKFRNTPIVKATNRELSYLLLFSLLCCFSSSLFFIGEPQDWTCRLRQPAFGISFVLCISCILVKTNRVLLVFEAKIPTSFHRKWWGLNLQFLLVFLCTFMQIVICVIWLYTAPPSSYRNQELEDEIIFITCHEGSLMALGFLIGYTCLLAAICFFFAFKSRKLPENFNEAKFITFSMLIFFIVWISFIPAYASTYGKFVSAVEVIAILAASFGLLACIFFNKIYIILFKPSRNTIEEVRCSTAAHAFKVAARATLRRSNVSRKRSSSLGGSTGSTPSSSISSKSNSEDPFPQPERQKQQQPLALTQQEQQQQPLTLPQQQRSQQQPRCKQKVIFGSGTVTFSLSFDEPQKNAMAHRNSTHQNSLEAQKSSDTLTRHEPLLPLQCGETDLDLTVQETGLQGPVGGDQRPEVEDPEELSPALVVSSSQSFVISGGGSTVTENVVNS
Method: For evaluation of the calcium receptor-activating effect, a Ca ion concentration-dependent Cl ionic current measuring method using a Xenopus laevis oocyte expression system was used. If each activator is added to Xenopus laevis oocytes expressing the calcium receptor, intracellular Ca ions increase. Then, the Ca ion concentration-dependent Cl channel opens, and the intracellular current value changes as an ionic current. By measuring the change in the intracellular current value, whether the calcium receptor-activating effect is present or not can be determined.
Specifically, the abdomen of Xenopus laevis was opened, and an egg batch was taken out and then treated with a 1% collagenase solution at 20° C. for 2 hours to obtain individual oocytes. Into the oocytes, 50 nl of 1 μg/μl receptor cRNA or 50 nl of sterilized water per oocyte were injected by using a micro glass capillary, and the oocytes were cultured at 18° C. for 2 to 3 days. For the culture, a solution obtained by adding 2 mM pyruvic acid, 10 U/ml penicillin, and 10 μg/ml streptomycin to the solution in Reference Example 2 was used. After the culture, a test solution was added to the oocytes injected with cRNA or sterilized water. Electrophysiological measurement was performed by using an amplifier Geneclamp 500 (manufactured by Axon) and recording software AxoScope 9.0 (manufactured by Axon). The oocytes were membrane potential-clamped at −70 mV by the double electrode potential clamp method, and the intracellular current via the Ca ion concentration-dependent Cl ion was measured. The maximum value of the intracellular current was defined as the response current value.
The calcium receptor-activating effect of L-amino acids was evaluated by using the method described in Reference Example 6. That is, oocytes injected with cRNA of the calcium receptor or sterilized water were prepared, and membrane potential-clamped at −70 mV by the double electrode potential clamp method. To the potential-clamped oocytes, alanine (10 mM), arginine (10 mM), asparagine (10 mM), aspartic acid (10 mM), cysteine (10 mM), glutamine (10 mM), glutamic acid (10 mM), glycine (10 mM), histidine (10 mM), isoleucine (10 mM), leucine (10 mM), lysine (10 mM), methionine (10 mM), phenylalanine (10 mM), proline (10 mM), serine (10 mM), threonine (10 mM), tryptophan (10 mM), tyrosine (10 mM), valine (10 mM), ornithine (10 mM), taurine (10 mM), or hydroxyproline (10 mM) was added, and Ca ion concentration-dependent Cl response current was measured. […] 25, 2000, 97(9): 4814-9.
The calcium receptor-activating effect of D-cysteine was evaluated by using the method described in Reference Example 6. That is, oocytes injected with cRNA of the calcium receptor or sterilized water were prepared, and membrane potential-clamped at −70 mV by the double electrode potential clamp method. To the potential-clamped oocytes, D-cysteine (10 mM), L-cysteine (10 mM), D-tryptophan (10 mM), or L-tryptophan (10 mM) was added, and Ca ion concentration-dependent Cl response current was measured.
The calcium receptor-activating effect of a peptide was evaluated by using the method described in Reference Example 6. That is, oocytes injected with cRNA of the calcium receptor or sterilized water were prepared, and membrane potential-clamped at −70 mV by the double electrode potential clamp method.
The calcium receptor-activating effects of peptides were evaluated in the same manner as that of Reference Example 10. Each of the peptides shown in Table 1 was added to potential-clamped oocytes at 1,000 μM, 300 μM, 100 μM, 30 μM, 10 μM, 3 μM, 1 μM, 0.3 μM, and 0.1 μM, and Ca ion concentration-dependent Cl response current was measured.

[2] = Kokumi-imparting activity intensity, quantitative sensory evaluation test; format: in vivo, human; details: 0.1 g/dl; for Kokumi intensity, Aftertaste / Kokumi intensity, Initial and middle taste: control 0, glutathione 3 points
Method: The quantitative sensory evaluation test was performed as follows. […] It should be noted that a sample, which became acidic after the sample had been dissolved, was adjusted with NaOH to pH 6.8 to 7.2 before use. […] The test was performed with n=3 based on the following sensory evaluation scores: control (0 point) and glutathione addition (3 points).
The quantitative sensory evaluation test was performed as follows. […] It should be noted that a sample, which became acidic after the sample had been dissolved, was adjusted with NaOH to pH 6.8 to 7.2 before use. The test was performed with n=5 based on the following sensory evaluation scores: control (0 point) and glutathione addition (3 points).
The quantitative sensory evaluation test was performed as follows. […] It should be noted that a sample, which became acidic after the sample had been dissolved, was adjusted with NaOH to pH 6.8 to 7.2 before use. The test was performed with n=12 based on the following sensory evaluation scores: control (0 point) and glutathione addition (3 points).

[3] = sodium glutamate, inosine monophosphate, sodium chloride solution, n=3, Table 3

N[C@H](CS)C(=O)O [D-cysteine]
calcium receptor-activating effect (Cl response current) ([1]; D-amino acid 10 mM, FIG. 3): definite calcium receptor-activating effect

N[C@@H](CS)C(=O)O [cysteine, reference compound]
calcium receptor-activating effect (Cl response current) ([1]; L-amino acid 10 mM, FIG. 2): definite calcium receptor-activating effect

N[C@@H](Cc1c[nH]cn1)C(=O)O [histidine, reference compound]
calcium receptor-activating effect (Cl response current) ([1]; L-amino acid 10 mM, FIG. 2): definite calcium receptor-activating effect

N[C@@H](Cc1ccccc1)C(=O)O [phenylalanine, reference compound]
calcium receptor-activating effect (Cl response current) ([1]; L-amino acid 10 mM, FIG. 2): definite calcium receptor-activating effect

N[C@@H](Cc1c[nH]c2ccccc12)C(=O)O [tryptophan, reference compound]
calcium receptor-activating effect (Cl response current) ([1]; L-amino acid 10 mM, FIG. 2): definite calcium receptor-activating effect

N[C@@H](Cc1ccc(O)cc1)C(=O)O [tyrosine, reference compound]
calcium receptor-activating effect (Cl response current) ([1]; L-amino acid 10 mM, FIG. 2): definite calcium receptor-activating effect

N[C@@H](CCC(=O)N[C@@H](CSN=O)C(=O)NCC(=O)O)C(=O)O [γ-Glu-Cys(SNO)-Gly]
calcium receptor-activating effect (Cl response current) ([1]; peptide 50 μM, FIG. 4): definite calcium receptor-activating effect

Asp-Gly
calcium receptor-activating effect (Cl response current) ([1]; peptide 1 mM, FIG. 4): definite calcium receptor-activating effect

Cys-Gly
calcium receptor-activating effect (Cl response current) ([1]; peptide 1 mM, FIG. 4): definite calcium receptor-activating effect

Cys-Met
calcium receptor-activating effect (Cl response current) ([1]; peptide 1 mM, FIG. 4): definite calcium receptor-activating effect

Glu-Cys
calcium receptor-activating effect (Cl response current) ([1]; peptide 50 μM, FIG. 4): definite calcium receptor-activating effect

Gly-Cys
calcium receptor-activating effect (Cl response current) ([1]; peptide 500 μM, FIG. 4): definite calcium receptor-activating effect

Leu-Asp
calcium receptor-activating effect (Cl response current) ([1]; peptide 1 mM, FIG. 4): definite calcium receptor-activating effect

[γGlu]-Ala
Kokumi intensity, Aftertaste ([2]; n=3, Table 3): 0.2 points | Kokumi intensity, Initial and middle taste [2, 3]: 0.5 points | calcium receptor-activating effect (Cl response current) ([1]; peptide 50 μM, FIG. 4): definite calcium receptor-activating effect

[γGlu]-Cys
Kokumi intensity, Aftertaste ([2]; n=5, Table 4): 2.0 points | Kokumi intensity, Initial and middle taste ([2]; n=5, Table 4): 2.0 points | calcium receptor-activating effect (Cl response current) ([1]; peptide 50 μM, FIG. 4): definite calcium receptor-activating effect

[γGlu]-Gly
calcium receptor-activating effect (Cl response current) ([1]; peptide 500 μM, FIG. 4): definite calcium receptor-activating effect

[γGlu]-Gly-Gly
Activity (lowest concentration at which current was detected) [1]: 30 µM

[γGlu]-Met
Taste profile ([2]; n=3, Table 3): Thickness and growth are slightly | Kokumi intensity, Aftertaste ([2]; n=3, Table 3): 0.4 points | Kokumi intensity, Initial and middle taste [2, 3]: 1.5 points | calcium receptor-activating effect (Cl response current) ([1]; peptide 500 μM, FIG. 4): definite calcium receptor-activating effect

[γGlu]-Ser-Gly
Activity (lowest concentration at which current was detected) [1]: 30 µM

[γGlu]-Thr
calcium receptor-activating effect (Cl response current) ([1]; peptide 50 μM, FIG. 4): definite calcium receptor-activating effect

[γGlu]-Val
Kokumi intensity, Aftertaste ([2]; n=3, Table 3): 1.0 points | Kokumi intensity, Aftertaste ([2]; n=5, Table 4): 1.0 points | Kokumi intensity, Initial and middle taste ([2]; n=5, Table 4): 3.0 points | Kokumi intensity, Initial and middle taste [2, 3]: 3.0 points | calcium receptor-activating effect (Cl response current) ([1]; peptide 50 μM, FIG. 4): definite calcium receptor-activating effect

[γGlu]-Val-Arg
Activity (lowest concentration at which current was detected) [1]: 1,000 μM

[γGlu]-Val-Asn
Activity (lowest concentration at which current was detected) [1]: 30 µM

[γGlu]-Val-Cys
Activity (lowest concentration at which current was detected) [1]: 10 µM

[γGlu]-Val-Gln
Activity (lowest concentration at which current was detected) [1]: 10 µM

[γGlu]-Val-Glu
Activity (lowest concentration at which current was detected) [1]: 1,000 μM

[γGlu]-Val-His
Activity (lowest concentration at which current was detected) [1]: 100 µM

[γGlu]-Val-Lys
Activity (lowest concentration at which current was detected) [1]: 1,000 μM

[γGlu]-Val-Met
Activity (lowest concentration at which current was detected) [1]: 1,000 μM

[γGlu]-Val-Phe
Activity (lowest concentration at which current was detected) [1]: 30 µM

[γGlu]-Val-Pro
Activity (lowest concentration at which current was detected) [1]: 30 µM

[γGlu]-Val-Ser
Activity (lowest concentration at which current was detected) [1]: 30 µM

[γGlu]-Val-Thr
Activity (lowest concentration at which current was detected) [1]: 1,000 μM

[γGlu]-Val-Val
Activity (lowest concentration at which current was detected) [1]: 1,000 μM

[γGlu]-Val-[Orn]
Activity (lowest concentration at which current was detected) [1]: 100 µM

[γGlu]-[γGlu]-Val
Activity (lowest concentration at which current was detected) [1]: 1,000 μM

γ-Glu-Cys(S-Me)-Gly
Activity (lowest concentration at which current was detected) [1]: 3 µM

γ-Glu-Cys(S-allyl)-Gly
Activity (lowest concentration at which current was detected) [1]: 100 µM

γ-Glu-Orn
calcium receptor-activating effect (Cl response current) ([1]; peptide 500 μM, FIG. 4): definite calcium receptor-activating effect

γ-Glu-Tau
Activity (lowest concentration at which current was detected) [1]: 300 µM

γ-Glu-Val-Asp
Activity (lowest concentration at which current was detected) [1]: 1,000 μM

γ-Glu-t-Leu
Activity (lowest concentration at which current was detected) [1]: 100 µM

From US8399417B2, “Food” (Ajinomoto Co., Inc., priority 2007, dated 2013)
